Patent US11998600B2, “Enhancing the therapeutic activity of an immune checkpoint inhibitor” (MaineHealth, priority 2015, dated 2024)

Assays:
Assay type in all cases: cell-based, human
Src = Src phosphorylation in endothelial cells attached to collagen peptides, Western blot; conditions: HUVEC; FIG. 7D
Description: (§1) Whole cell and CAM tissue lysates were collected in RIPA buffer supplemented with 1× protease inhibitor and 1× phosphatase inhibitor and were run on polyacrylamide gels using denaturing conditions. Prior to loading the gels, 6× sample buffer was added to each of the lysates (final concentration 1×) and boiled for five minutes. Twenty to 50 μg of total protein were loaded into each lane. […] Gels were run at 60 volts (v) until the dye front passed through the stacking gel, and then the voltage was increased to 100V for the remainder of the separation. Precision Plus protein standards (Bio-Rad) were used to visualize migration. Protein was transferred to nitrocellulose membranes using a wet tank system and blocked for 1 h using 10% non-fat dried milk in tris-buffered saline with 0.01% Tween-20 (TBS-T). […] Membranes were washed 3 times in TBS-T for five minutes. Blots were then incubated with HRP conjugated secondary antibodies (1:15000) in 1% non-fat milk in TBS-T for 1 h. Membranes were washed a second time as indicated above and exposed to chemiluminecent substrate for three minutes prior to exposure to autoradiography film in a dark room. Western blot bands were quantified using Image J software based on pixel intensity.

YAP = test: Nuclear YAP in HUVECs attached to collagen peptides
Description: as §1

HRMVEC = test: Cell proliferation assay, HRMVEC; conditions: peptide 100 ng/ml, 24 hours; FIG. 8D
Description: HUVECs (WT, shYAP1 or control transfected) or HRMVECs were plated at 2,000 cells per well with complete EGM-2 media containing 2.0% FBS in the absence or presence of P-1, P-2 or P-C (100 ng/ml) and allowed to grow for 24 hours. Cell growth was monitored using a BrdU or MMT assay kits according to manufacturer's instructions. All assays were completed at least three times in triplicate wells.

P38MAPK = P38MAPK phosphorylation in HUVECs attached to collagen peptides, Western blot; conditions: cells attached to immobilized peptide; FIG. 6D
Description: Endothelial cells (HUVECs or HRMVECs) were incubated in serum free media with 1 mM MgCl2, 0.2 mM MnCl2 in the presence of a Src inhibitor, PP2, (10 μM) a P38MAPK inhibitor, SB202190 (10 μM) or vehicle only (DMSO) for 10 min at 37° C. Treated cells were then seeded on to immobilized P-1 and P-2 and lysates were collected at 15 min.
Whole cell and CAM tissue lysates were collected in RIPA buffer supplemented with 1× protease inhibitor and 1× phosphatase inhibitor and were run on polyacrylamide gels using denaturing conditions. Prior to loading the gels, 6× sample buffer was added to each of the lysates (final concentration 1×) and boiled for five minutes. Twenty to 50 μg of total protein were loaded into each lane. For detection of proteins larger than 50 kD, 10% gels were used; for proteins smaller than 50 kD 15% gels were used. Gels were run at 60 volts (v) until the dye front passed through the stacking gel, and then the voltage was increased to 100V for the remainder of the separation. Precision Plus protein standards (Bio-Rad) were used to visualize migration. Protein was transferred to nitrocellulose membranes using a wet tank system and blocked for 1 h using 10% non-fat dried milk in tris-buffered saline with 0.01% Tween-20 (TBS-T). […] Western blot bands were quantified using Image J software based on pixel intensity. […]

[1] = test system: endothelial cells (HUVECs); test: Actin stress fiber formation in HUVECs attached to collagen peptides (F-actin stain); conditions: FIG. 7G
Description: CAMs examined for accumulation of granulation tissue were harvested, fixed in 4% PFA and paraffin embedded and sectioned (4 μm) and stained with Giemsa. CAM tissues analyzed via immunofluorescence were harvested, embedded with OCT, snap frozen and sectioned ([…]). Frozen sections were fixed in 50% methanol/50% acetone, air dried and blocked with 2.5% BSA for 1 h at 37° C. For expression of the XL313 and XL166 epitopes as well as monocyte/macrophages, FGF-2 stimulated CAM tissues were stained with Mabs XL313, XL166 (50 μg/ml) or KUL1 (1:250) and then incubated with Alexa-488 labeled secondary antibodies (1:2000 dilution). […] Using a similar strategy, sections of RGD peptide-treated CAM tissues were analyzed for phosphorylated-P38MAPK in angiogenic vessels by co-incubation of anti-phospho-P38MAPK (1:50) and anti-vWf (1:500) antibodies. […]
Because both RGD containing peptides bind αvβ3 coupled with the differential effect of these peptides on angiogenesis and inflammation, it was determined whether the RGD peptides differentially altered αvβ3-mediated signaling. […] Therefore, the differential phosphorylation of these protein kinases following the early mechanical-mediated interactions with the RGD containing collagen peptides was assessed. […]

QGPRGDKGE [Mab P-2]
enhancement of Src phosphorylation, P-2 as compared to P-1 (Src): ~2 fold | nuclear localized YAP (immunofluorescence), P-2 as compared to P-1 (YAP; 15 minutes after binding, no growth factor, FIG. 8A): enhanced level of nuclear localized YAP | increase of nuclear YAP levels (Western blot), P-2 as compared to P-1 (YAP; nuclear fractions of HUVEC lysates, FIG. 8B): approximately 2 fold | HRMVEC growth with soluble peptide (HRMVEC): significantly (P<0.05) enhanced endothelial cell growth | phosphorylation of P38MAPK in HUVECs, P-2 as compared to P-1 (P38MAPK): enhanced phosphorylation of P38MAPK | actin stress fiber formation, P-2 as compared to P-1 [1]: accelerated actin stress fiber formation
